Assay results from patent US8765684B2, “Solid materials of {[(2S,5R,8S,11S)-5-benzyl-11-(3-guanidino-propyl)-8-isopropyl-7-methyl-3,6,9,12,15-pentaoxo-1,4,7,10,13-pentaaza-cyclopentadec-2-yl]-acetic acid} and methods for obtaining them” (Merck Patent GmbH, priority 2009, dated 2014).

Assays:
[1] = type: physicochemical; conditions: 25° C., listed as S2
From the text: Preferably, the anhydrates or ansolvates according to the invention and especially the crystalline form A1 can be characterised, alternatively or additionally, by dynamic vapour sorption experiments. The results can be obtained by standard techniques as described in Rolf Hilfiker, ‘Polymorphism in the Pharmaceutical Industry’, Wiley-VCH. Weinheim 2006 (Chapter 9: Water Vapour Sorption, and references therein). […] Eur. criteria.
Preferably, the tetrasolvates according to the invention, more preferably the tetrahydrates according to the invention and especially the crystalline form S3 can be characterised, alternatively or additionally, by dynamic vapour sorption experiments. The results can be obtained by standard techniques as described in Rolf Hilfiker, ‘Polymorphism in the Pharmaceutical Industry’, Wiley-VCH. Weinheim 2006 (Chapter 9: Water Vapour Sorption, and references therein).
Dynamic Vapor Sorption measurements are preferably obtained on a SMS DVS Intrinsic system. The results are preferably obtained by standard techniques as described by Rolf Hilfiker “Polymorphism in the Pharmaceutical Industry” Wiley-VCH Weinheim 2006 (Chapter 9: Water Vapour Sorption, and references therein.) Approx. 2-10 mg of samples are preferably weighed into an Aluminium 100 μL pan and placed in the sample incubator of the DVS instrument with microbalance. A nitrogen overall flow rate of 200 mL/min (combined dry and humid stream) is preferably used for humidification. Water vapor sorption isotherms are preferably acquired at 25° C. in the range 0% relative humidity to 98% relative humidity mostly with 10% relative humidity steps. For all relative humidity steps, an equilibrium condition of dm/dt≦0.0005 wt %/min are preferably used, with a minimum relative humidity step time of 10 minutes and a maximum relative humidity step time of 360 minutes which is preferably used as a timeout if the dm/dt criterai mentioned above is not been reached.
A SMS DVS I system is used for the dynamic vapour experiments regarding crystalline form S3. The results have been obtained by standard techniques as described in Rolf Hilfiker, ‘Polymorphism in the Pharmaceutical Industry’, Wiley-VCH. Weinheim 2006 (Chapter 9: Water Vapour Sorption, and references therein). […] During the water adsorption cycle there is shown an assembly of water molecules (ca. 10 wt%) in the lattice at elevated rh. In the second desorption cycle there is a loss of this amount of water.
(§1) A SMS DVS Intrinsic is used for the dynamic vapour experiments. The results are obtained by standard techniques as described in Rolf Hilfiker, ‘Polymorphism in the Pharmaceutical Industry’, Wiley-VCH. Weinheim 2006 (Chapter 9: Water Vapour Sorption, and references therein). […] Upon water vapour adsorption, an assembly of water molecules in the lattice is observed, with a maximum weight gain of approx. 8 wt % at elevated rh. In the second desorption cycle a total mass loss of approx. 9.9 wt % is observed. For a Cilengitide Dihydrate Di-Methanolate, the calculated Methanol content equals 9.3 wt %.
as §1, with “6.4” for “8”, “9.2” for “9.9”, “Di-Ethanolate,” for “Di-Methanolate,”, “Ethanol” for “Methanol”, “12.5” for “9.3”

[2] = Competitive slurry conversion of pseudopolymorphic form and form A1 (1:1) in Water/Methanol and Water/Ethanol mixtures; type: physicochemical; conditions: 1:1 pseudopolymorphic form + A1
Protocol: b) Additionally, crystalline tetrasolvates according invention and especially crystalline forms S1 and S2 can be manufactured by competitive slurry conversion experiments with a mixture of a pseudopolymorphic form (for example S1, S2, S3 or mixtures of these) with form A1 (1:1) in Water/Methanol and Water/Ethanol mixtures with different alcohol contents at different temperatures, respectively.
(§2) Approx. 20 mg of a pseudopolymorphic form (for example S1, S2, S3 or mixtures of these) and 20 mg of form A1 of Cilengitide are dispersed in 300 μl Water/alcohol mixture at 0° C. or room temperature (25° C.). The dispersion is stirred for 24 h and additionally for 3 weeks at RT (25° C.) (long-term experiment) by a magnetic stirrer and finally filtered
Approx. 20 mg of a pseudopolymorphic form (for example S1, S2, S3 or mixtures of these) and 20 mg of form A1 of Cilengitide are dispersed in 300 μl Water/alcohol mixture at 50° C. The dispersion is stirred for 24 h by a magnetic stirrer and finally filtered.
Additionally form A1 can be manufactured by competitive slurry conversion experiments with a mixture of a pseudopolymorphic form (for example S1, S2, S3 or mixtures of these) and form A1 (1:1) in Water/Methanol and Water/Ethanol mixtures with different alcohol contents at different temperatures. In the following table the conditions for the experiments leading to the pure form A1 are listed.
as §2, with “C.,” for “C. or”, “and 50° C.” for “(25° C.).”, “filtered.” for “filtered”

cyclo-(Arg-Gly-Asp-DPhe-NMe-Val) [crystalline form S2]
Maximum weight gain upon water vapour adsorption ([1]; elevated rh): approx. 6.4 wt %
Mass loss in the first desorption cycle ([1]; water vapour sorption): approx. 6.5 wt %
Total mass loss in the second desorption cycle ([1]; water vapour sorption): approx. 9.2 wt %
Ethanol in the mixture with Water leading to form S2 ([2]; 0° C. for 1 day): 20-80 v %
Ethanol in the mixture with Water leading to form S2 ([2]; RT for 3 weeks): 40-70 v %
Ethanol in the mixture with Water leading to form S2 ([2]; RT for 1 day): 40-80 v %
